According to paper PMC12257394, “Design, Synthesis, and Biological Evaluation of Ferrocenyl–Cyclo-(Gly‑L‑Pro) Hybrids Sensitizing Multidrug-Resistant Cancer Cells to Anticancer Agents” (ACS Medicinal Chemistry Letters, 2025):
Entries after “also recorded” stand apart in the source; their conditions may differ.

What was measured:
[1] = target: T1, ABCG2 (Homo sapiens, UniProt Q9UNQ0); assay: 5D3 antibody-binding assay in SW620Mito cells; type: cell-based; conditions: 1 μM compound, n = 3
T1 construct: ABCG2-overexpressing SW620C and SW620Mito; endogenous in cells; host or cells: SW620Mito (mitoxantrone-resistant variant of SW620, developed in the authors' laboratory by drug selection)
T1 sequence (Q9UNQ0 1-655): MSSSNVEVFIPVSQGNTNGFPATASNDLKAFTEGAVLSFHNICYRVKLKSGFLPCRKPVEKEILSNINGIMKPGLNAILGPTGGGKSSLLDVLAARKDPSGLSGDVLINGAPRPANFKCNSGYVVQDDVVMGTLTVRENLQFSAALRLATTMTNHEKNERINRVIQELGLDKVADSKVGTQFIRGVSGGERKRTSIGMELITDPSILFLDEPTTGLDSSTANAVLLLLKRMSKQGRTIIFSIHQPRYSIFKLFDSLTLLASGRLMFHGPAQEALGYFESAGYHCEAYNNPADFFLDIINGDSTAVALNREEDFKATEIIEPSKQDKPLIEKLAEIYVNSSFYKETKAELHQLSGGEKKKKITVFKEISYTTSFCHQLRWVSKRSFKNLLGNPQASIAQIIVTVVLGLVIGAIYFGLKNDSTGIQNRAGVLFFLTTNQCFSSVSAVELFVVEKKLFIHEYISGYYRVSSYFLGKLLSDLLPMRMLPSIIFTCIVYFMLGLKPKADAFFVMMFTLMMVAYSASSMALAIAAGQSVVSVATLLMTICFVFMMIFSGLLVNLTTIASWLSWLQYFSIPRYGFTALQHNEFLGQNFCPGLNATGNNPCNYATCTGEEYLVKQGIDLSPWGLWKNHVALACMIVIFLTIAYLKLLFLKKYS
Source text: (§1) To obtain deeper insight into the direct interactions between the investigated inhibitors and transporter protein molecules, we used two commercially available antibodies, UIC-2 and 5D3, which recognize the active forms of ABCB1 and ABCG2, respectively. These antibodies specifically recognize epitopes that are exposed when the transporter interacts with the allocrite.
(§2) A total of 106 parental SW620 cells expressing low level of ABC proteins or their multidrug - resistant variant SW620V cells (overexpressing ABCB1) or SW620Mito cells (overexpressing ABCG2) were suspended in 1 mL of complete culture medium supplemented with solvent (DMSO), a positive control (vincristine/mitoxantrone), or an investigated compound at a final concentration of 1 µM. APC-conjugated UIC2 anti-ABCB1/FITC-conjugated 5D3 anti-ABCG2 antibody or the respective isotype control was then added to a final concentration of 5 µg/mL, and the samples were incubated at 37°C for 60 min. Then, the cells were washed three times (100 × g for 10 min) with fresh medium and analyzed using a FACSymphony A1 (Becton, Dickinson and Company, New Jersey, USA) instrument. Results were expressed as a difference of median of fluorescence of a given sample (specific binding of antibody) and the respec tive isotype control (unspecific binding). […]
(§3) All experiments were performed at least three times, and the data were statistically analyzed

[2] = system: SW620C cells (cisplatin-resistant); assay: Neutral red uptake viability assay, SW620C; type: cell-based, human; conditions: for survival rate / IC50 / Cytotoxic activity IC50 (95% CI): SW620C, 72 h; for survival rate: n = 3, ± SD; for IC50 / Cytotoxic activity IC50 (95% CI): n = 3; for IC50: read-out: Cytotoxic activity IC50 (95% CI)
Method: The normal lung fibroblast MRC-5 and colorectal adenocarcinoma SW620 cell lines used in this experiment were purchased from American Type Culture Collection (USA) via LGC […]
described previously.10, 11 All cells were cultured under standard conditions (37°C, 5% CO2, 100% humidity) in high-glucose DMEM supplemented with GlutaMaxTM, HEPES (ThermoFisher Scientific, USA), and 10% fetal bovine serum (EURx, Poland). Cells were routinely tested for potential Mycoplasma contamination using the MycoProbe Mycoplasma Detection kit (R&D System, USA).
In total, 104 cells in 100 µL of complete medium were plated per well of a 96-well plate and left overnight to allow cells to adhere to the surface. Then, the cells were exposed to a desired concentration of tested compound(s). Stock solutions were prepared in DMSO and used immediately. The final DMSO concentration was constant and nontoxic (0.1% v/v). After 70-h incubation, neutral red was added to the final concentration of 1 mM. After another 2 h, the medium was aspirated, and cells were washed twice with PBS. Dye was released using 100 µL of a solubilizer (1% acetic acid in 50% ethanol) on an orbital shaker (10 min). Absorbance was read at 540 nm using EnVision Multilabel Plate Reader (Perkin Elmer, USA). Results were expressed as % of control. The IC50 parameters were calculated using GraphPad Prism version 10 (GraphPad Software, Boston, Massachusetts USA). […]
IC₅₀ values were determined in […]
All experiments were performed in triplicate (n = 3).

[3] = target: T2, ABCB1 (Homo sapiens, UniProt P08183); assay: UIC-2 antibody-binding assay in SW620V cells; type: cell-based; conditions: 1 μM compound, n = 3
T2 construct: ABCB1-overexpressing SW620V cells; endogenous in cells; host or cells: SW620V (vincristine-resistant variant of SW620, developed in the authors' laboratory by drug selection)
T2 sequence (P08183 whole entry): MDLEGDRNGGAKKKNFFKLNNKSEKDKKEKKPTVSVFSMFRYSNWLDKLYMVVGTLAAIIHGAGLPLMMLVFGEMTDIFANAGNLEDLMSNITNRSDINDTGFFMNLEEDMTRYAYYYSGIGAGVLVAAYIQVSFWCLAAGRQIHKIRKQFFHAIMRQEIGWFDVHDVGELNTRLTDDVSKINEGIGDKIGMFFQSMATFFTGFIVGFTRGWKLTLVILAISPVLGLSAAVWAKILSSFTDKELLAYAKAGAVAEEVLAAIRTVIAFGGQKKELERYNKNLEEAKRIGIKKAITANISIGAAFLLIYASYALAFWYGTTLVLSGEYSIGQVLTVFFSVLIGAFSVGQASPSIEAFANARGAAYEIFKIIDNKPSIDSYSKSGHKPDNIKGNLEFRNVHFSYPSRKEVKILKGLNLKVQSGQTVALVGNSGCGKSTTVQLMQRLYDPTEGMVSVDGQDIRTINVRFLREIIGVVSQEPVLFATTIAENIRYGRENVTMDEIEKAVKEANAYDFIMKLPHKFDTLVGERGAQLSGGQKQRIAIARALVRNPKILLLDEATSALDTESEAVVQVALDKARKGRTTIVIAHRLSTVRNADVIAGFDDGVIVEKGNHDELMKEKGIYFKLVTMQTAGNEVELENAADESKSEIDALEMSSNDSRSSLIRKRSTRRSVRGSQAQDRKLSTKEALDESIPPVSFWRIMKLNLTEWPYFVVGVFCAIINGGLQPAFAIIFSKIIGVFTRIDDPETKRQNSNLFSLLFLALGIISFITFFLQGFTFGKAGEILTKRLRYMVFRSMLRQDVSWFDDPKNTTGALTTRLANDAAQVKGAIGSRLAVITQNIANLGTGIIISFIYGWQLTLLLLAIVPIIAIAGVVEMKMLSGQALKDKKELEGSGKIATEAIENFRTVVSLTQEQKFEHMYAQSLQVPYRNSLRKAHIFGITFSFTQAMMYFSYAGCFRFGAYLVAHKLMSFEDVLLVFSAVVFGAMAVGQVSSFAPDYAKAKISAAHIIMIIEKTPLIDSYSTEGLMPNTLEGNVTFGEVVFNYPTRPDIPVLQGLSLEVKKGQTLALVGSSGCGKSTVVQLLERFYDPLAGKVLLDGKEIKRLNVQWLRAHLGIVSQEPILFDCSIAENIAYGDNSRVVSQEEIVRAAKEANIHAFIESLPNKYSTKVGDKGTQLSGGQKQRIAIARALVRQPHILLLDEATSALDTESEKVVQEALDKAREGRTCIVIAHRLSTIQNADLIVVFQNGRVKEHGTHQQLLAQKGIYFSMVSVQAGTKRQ
Source text: as §1, §2, §3

[4] = system: SW620M cells; assay: Synergy determination (Bliss model, SynergyFinder), SW620M; type: cell-based, human; conditions: drug methotrexate + additive; for synergy score: Bliss model
Source text: (§4) In an ideal setting, the effect of cell exposure to a combination of a chemotherapeutic and an MDR inhibitor should be synergistic. […] The highest synergy scores identified an optimal concentration range where the combination exerted its maximal effect. […] In cisplatin-resistant SW620C cells, the low or lack of synergy observed for most compounds may be due to the additive effects of cisplatin and 4 rather than a true synergistic interaction. […]
(§5) To evaluate the potential interactions between putative ABC inhibitors and anticancer drugs, we utilized the Bliss independence model, as implemented in the SynergyFinder web application.13, 14 Synergy scores and the most synergistic area scores were calculated based on the normalized dose–response matrices. A synergy score below −10 indicates likely […]
(§6) above 10 is indicative of likely synergistic interactions.
as §3

[5] = system: SW620V cells; assay: Synergy determination (Bliss model, SynergyFinder), SW620V; type: cell-based, human; conditions: drug vincristine + additive; for synergy score: Bliss model
Source text: as §4, §5, §6, §3

Row | Compound | 5D3 antibody binding to ABCG2 [1] | fold higher IC50 value than (S,Z)-4c ([2]; SW620C cells) | survival rate ([2]; 1 μM) | survival rate ([2]; 10 μM) | IC50 [2] | UIC-2 antibody binding to ABCB1 [3] | most synergistic area score [4] | synergy score [4] | Cytotoxic activity IC50 (95% CI) [2] | most synergistic area score [5] | synergy score [5]
1 | O=C1N/C(=C/c2cccc(-[c-]3cccc3)c2)C(=O)N2CCC[C@@H]12.[Fe+2].c1cc[cH-]c1 [(S,E)-4c] | no detectable interaction | 13 fold | 84 ± 0.7% | 87 ± 1.1% | 62.4 µM | no detectable interaction | 0.00 | –2.83 |  |  | 
2 | O=C1N/C(=C/c2ccccc2)C(=O)N2CCC[C@@H]12 [(S,E)-4e] |  |  | 96 ± 0.8% | 95 ± 2.5% |  |  |  |  |  |  | 
3 | O=C1N/C(=C\[c-]2cccc2)C(=O)N2CCC[C@@H]12.[Fe+2].c1cc[cH-]c1 [(S,Z)-4a] | recognized as ABCG2 allocrites |  | 78 ± 1.8% | 54 ± 3.1% | 15.1 µM | binding patterns expected for ABCB1 allocrites | 3.56 | –3.78 | low-micromolar | 15.88 | 4.27
4 | O=C1N/C(=C\c2ccccc2-[c-]2cccc2)C(=O)N2CCC[C@@H]12.[Fe+2].c1cc[cH-]c1 [(S,Z)-4b] | recognized as ABCG2 allocrites |  | 83 ± 4.2% | 57 ± 1.1% | 12 µM | binding patterns expected for ABCB1 allocrites; also recorded: enhance UIC-2 antibody binding | 1.57 | –5.03 | low-micromolar | 27.24 | 7.15
5 | O=C1N/C(=C\c2ccc(-[c-]3cccc3)cc2)C(=O)N2CCC[C@@H]12.[Fe+2].c1cc[cH-]c1 [(S,Z)-4d] | recognized as ABCG2 allocrites |  | 96 ± 3.6% |  | > 100 µM | binding patterns expected for ABCB1 allocrites; also recorded: enhance UIC-2 antibody binding | 0.00 | –5.20 |  | 24.93 | 13.6
6 | O=C1N/C(=C\c2ccccc2)C(=O)N2CCC[C@@H]12 [(S,Z)-4e] |  |  | 95 ± 2.1% | 95 ± 1.0% |  |  |  |  |  |  | 
